# Laboratory results as given in patent US20200331882A1, “COMPOUND FOR SIMULTANEOUSLY INHIBITING LSD1 AND HDAC TARGETS AND APPLICATION THEREOF” (PEKING UNIVERSITY SHENZHEN GRADUATE SCHOOL, priority 2018, published 2020).
# Columns and labels:
# [1] = biological target: T1, recombinant human LSD1 protein (Homo sapiens, UniProt O60341); test: In vitro LSD1 inhibitory activity, LSD1-HRP coupling reaction (Amplex Red); format: biochemical; conditions: LSD1 enzyme activity in vitro; 30 min preincubation; H3K4Me2 peptide
# T1 construct: made in house; host or cells: E. coli
# Text: LSD1 activity was detected by using LSD1-HRP coupling reaction. […] During the reduction of H2O2 to H2O, Amplex Red acts as an electron donor and oxidizes to Resorufin for detection of fluorescence. […] Ampliflu™ Red, peroxidase, from horseradish required for the experiment was purchased from SIGMA; H3K4Me2 substrate peptide was purchased from GL Biochemical (Shanghai) Co., Ltd.
# HDAC1 = biological target: T2, HDAC1 (Homo sapiens, UniProt Q13547); test: In vitro HDAC1 inhibitory activity, FLUOR DE LYS HDAC1 fluorometric assay kit; format: biochemical; conditions: HDAC1 enzyme activity in vitro
# T2 construct: purchased Enzo Biochem Inc
# T2 sequence (Q13547 whole entry): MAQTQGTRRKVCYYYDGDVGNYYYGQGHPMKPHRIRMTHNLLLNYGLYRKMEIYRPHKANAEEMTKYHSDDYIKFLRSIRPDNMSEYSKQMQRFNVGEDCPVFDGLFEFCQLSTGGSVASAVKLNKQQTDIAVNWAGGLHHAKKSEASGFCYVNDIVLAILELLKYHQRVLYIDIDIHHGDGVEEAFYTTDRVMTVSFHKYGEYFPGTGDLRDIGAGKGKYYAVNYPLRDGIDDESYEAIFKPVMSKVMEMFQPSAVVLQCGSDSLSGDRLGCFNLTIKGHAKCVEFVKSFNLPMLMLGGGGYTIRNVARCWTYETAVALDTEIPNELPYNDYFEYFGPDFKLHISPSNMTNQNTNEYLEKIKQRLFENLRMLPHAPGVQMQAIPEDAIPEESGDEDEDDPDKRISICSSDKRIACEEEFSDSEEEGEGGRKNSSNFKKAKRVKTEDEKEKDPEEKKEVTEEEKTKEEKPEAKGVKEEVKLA
# Text: The principle was shown in the following reaction formula: HDAC1 catalyzes the deacetylation of a substrate FLUOR DE LYS® Substrate (containing an acetylated side chain), the product can react with FLUOR DE LYS® Developer II to generate fluorescence (shown in the following reaction process), and the inhibitory activity of a molecule to be detected on HDAC1 can be indirectly obtained by detecting the fluorescence intensity of the product. In this experiment, 360 nm was selected as the excitation wavelength and 460 nm as the emission wavelength for detection. FLUOR DE LYS® HDAC1 fluorometric drug discovery assay kit required for experiments was purchased from Enzo Biochem Inc.
# During the test, the sample was prepared according to the specific experimental conditions of blocking the HDAC1 enzyme activity of the compound of the present invention in vitro in accordance with Table 2 below.
# [2] = tested on: human breast cancer cell line BT-474; test: MTT tumor cell proliferation; format: cell-based; conditions: 72 h
# Text: (§1) MTT colorimetric method was used to detect the inhibitory activity of a series of compounds (i.e. ZZY-001 to ZZY-016, a total of 16 kinds) of the embodiment of the present invention on the proliferation of tumor cells in vitro. The full name of MTT is 3-(4,5-dimethyl-2-thiazolyl)-2,5-diphenyl-2-H-tetrazolium romide, which is a yellow dye also known as thiazolyl blue. […] DMSO can dissolve Formazan deposited in cells and the absorbance value can be measured with a enzyme marker at a wavelength of 490 nm. In a certain range of cell number, the production of Formazan is proportional to the number of cells, so the number of living cells can be inferred according to the measured OD value.
# (§2) The cell suspension was inoculated on a 96-well plate at 100 μl/well and cultured in a constant temperature CO2 incubator for 24 h. Then the tested drugs were added, 100 μl/well, and cultured for 72 h. MTT was added to a 96-well plate, 20 μl/well, and reacted for 4 h in the incubator. Absorb the supernatant, add DMSO, 150 μl/well and shake for 10 min on the plate shaker. The optical density (OD value) of each well was measured by enzyme marker at the wavelength of 490 nm.
# [3] = tested on: human colon adenocarcinoma cell HCT116; test: MTT tumor cell proliferation; format: cell-based
# Text: as §1, §2
# [4] = tested on: mouse breast cancer cell 4T1; test: MTT tumor cell proliferation; format: cell-based; conditions: 72 h
# Text: as §1, §2
# [5] = tested on: mouse colon cancer cell CT26.WT; test: MTT tumor cell proliferation; format: cell-based; conditions: 72 h
# Text: as §1, §2
# [6] = tested on: human breast cancer cell line MDA-MB-231; test: MTT tumor cell proliferation; format: cell-based; conditions: 72 h
# Text: as §1
# In the experiments of this embodiment, the selected cell lines are human breast cancer cell line MDA-MB-231 and BT-474, human colon adenocarcinoma cell HCT116, mouse colon cancer cell CT26.WT, mouse breast cancer cell 4T1. During the test, the cells in logarithmic phase and in good condition were digested with 0.25% trypsin digestion solution to make the adherent cells fall off, and the cell suspension (suspension cells without trypsin digestion) was made by counting 2-4×10^4 cells/ml. The cell suspension was inoculated on a 96-well plate at 100 μl/well and cultured in a constant temperature CO2 incubator for 24 h. Then the tested drugs were added, 100 μl/well, and cultured for 72 h. MTT was added to a 96-well plate, 20 μl/well, and reacted for 4 h in the incubator. Absorb the supernatant, add DMSO, 150 μl/well and shake for 10 min on the plate shaker. The optical density (OD value) of each well was measured by enzyme marker at the wavelength of 490 nm. […]
IC50 [1] [nM],IC50 (HDAC1) [nM],Compound,further results
991,451,O=C(/C=C/c1ccc(-c2ccc(N3CCNCC3)nc2)cc1)NO [ZZY-016],
16.1,942,CN1CCN(c2ccc(-c3ccc(/C=C/C(=O)NO)cc3)cc2)CC1 [ZZY-012],"IC50 ([2]; Homo sapiens): 4210 nM; IC50 ([3]; Homo sapiens, HCT-116, 72 h): 469 nM; IC50 ([4]; Mus musculus): 2320 nM; IC50 ([5]; Mus musculus): 737 nM; IC50 ([6]; Homo sapiens): 1140 nM"
1410,9640,Cc1cc(/C=C/C(=O)NO)ccc1-c1ccc(N2CCCCC2)cc1 [ZZY-013],
1110,9860,O=C(/C=C/c1ccc(-c2ccc(N3CCCCC3)cc2)cc1)NO [ZZY-014],
879,262,Cc1cc(/C=C/C(=O)NO)ccc1-c1ccc(N2CCNCC2)nc1 [ZZY-015],

# Continued, compound first:
Compound,IC50 [1] [nM],IC50 (HDAC1) [nM],further results
O=C(/C=C/c1ccc(-c2ccc(-n3ccnc3)cc2)cc1)NO [ZZY-010],8260,3520,
Cc1cc(/C=C/C(=O)NO)ccc1-c1ccc(N2CCN(C)CC2)cc1 [ZZY-011],131,434,"IC50 ([2]; Homo sapiens): 5900 nM; IC50 ([3]; Homo sapiens, HCT-116, 72 h): 728 nM; IC50 ([4]; Mus musculus): 2600 nM; IC50 ([5]; Mus musculus): 1050 nM; IC50 ([6]; Homo sapiens): 2040 nM"
"N[C@@H]1C[C@H]1c1ccccc1 (racemic) [TCP, tranylcypromine, reference compound]",,> 100000,IC50 [2]: > 10000 nM; IC50 ([3]; 72 h): > 10000 nM; IC50 [4]: > 10000 nM; IC50 [5]: > 10000 nM; IC50 [6]: > 10000 nM
Cc1cc(C(=O)Nc2ccccc2N)ccc1-c1ccc(N2CCNCC2)cc1 [ZZY-006],2380,5380,
Cc1ccc(C(=O)Nc2cc(N3CCNCC3)ccc2-c2ccc(C(=O)Nc3ccccc3N)cc2C)cc1 [ZZY-005],5160,8940,
O=C(/C=C/c1ccc(-c2ccc(N3CCOCC3)cc2)cc1)NO [ZZY-008],716,9360,
Cc1cc(/C=C/C(=O)NO)ccc1-c1ccc(N2CCNCC2)cc1 [ZZY-001],1550,671,"IC50 ([2]; Homo sapiens): 17800 nM; IC50 ([3]; Homo sapiens, HCT-116, 72 h): 1540 nM; IC50 ([4]; Mus musculus): 3870 nM; IC50 ([5]; Mus musculus): 2200 nM; IC50 ([6]; Homo sapiens): 2320 nM"
Cc1cc(/C=C/C(=O)NO)ccc1-c1ccc(N2CCOCC2)cc1 [ZZY-007],477,1110,
Cc1cc(/C=C/C(=O)NO)ccc1-c1ccc(-n2ccnc2)cc1 [ZZY-009],1400,2800,
Cc1cc(/C=C/C(=O)NO)ccc1-c1ccc(N2CCNCC2)cc1NC(=O)c1ccccc1 [ZZY-002],1320,71.6,"IC50 ([2]; Homo sapiens): 7560 nM; IC50 ([3]; Homo sapiens, HCT-116, 72 h): 1290 nM; IC50 ([4]; Mus musculus): 5610 nM; IC50 ([5]; Mus musculus): 31200 nM; IC50 ([6]; Homo sapiens): 1370 nM"
